Assay results taken from the NIST ThermoML archive (doi:10.1016/j.tca.2013.03.017).

How the values were obtained:
[1] = molar heat capacity at constant pressure; xn = mol fraction of the nth substance listed; details: 101 kPa, Liquid, Small sample (50 mg) DSC
[2] = xn = mol fraction of the nth substance listed; details: 101 kPa, Liquid, Hot wire method

O=S1(=O)CCCC1 [sulfolane] + O
Details	molar heat capacity at constant pressure, [1] [J/K/mol]	thermal conductivity, [2] [W/m/K]
303.15 K, x1 = 0.1	87.62	0.3861
303.15 K, x1 = 0.198	99.49	0.296
303.15 K, x1 = 0.299	112	0.2563
303.15 K, x1 = 0.397	123.4	0.2358
303.15 K, x1 = 0.493	133.8	0.2206
303.15 K, x1 = 0.6	144.9	0.2028
303.15 K, x1 = 0.699	154.4	0.1911
303.15 K, x1 = 0.8	163.7	0.1809
303.15 K, x1 = 0.899	172.4	0.1739
303.15 K, x1 = 1	181.5	0.1678
313.15 K, x1 = 0.1	88.47	0.3969
313.15 K, x1 = 0.198	100.9	0.2979
313.15 K, x1 = 0.299	113.9	0.2583
313.15 K, x1 = 0.397	125.6	0.2334
313.15 K, x1 = 0.493	136.4	0.22
313.15 K, x1 = 0.6	148	0.2012
313.15 K, x1 = 0.699	157.9	0.1896
313.15 K, x1 = 0.8	167.2	0.1797
313.15 K, x1 = 0.899	176	0.1719
313.15 K, x1 = 1	185.1	0.1656
323.15 K, x1 = 0.1	89.1	0.4026
323.15 K, x1 = 0.198	102.2	0.2965
323.15 K, x1 = 0.299	115.3	0.2558
323.15 K, x1 = 0.397	127.5	0.2316
323.15 K, x1 = 0.493	138.8	0.2167
323.15 K, x1 = 0.6	150.6	0.1993
323.15 K, x1 = 0.699	160.9	0.1883
323.15 K, x1 = 0.8	170.9	0.1788
323.15 K, x1 = 0.899	179.7	0.1715
323.15 K, x1 = 1	188.7	0.1634
333.15 K, x1 = 0.1	89.75	0.4084
333.15 K, x1 = 0.198	103.6	0.295
333.15 K, x1 = 0.299	117.3	0.2507
333.15 K, x1 = 0.397	129.9	0.2304
333.15 K, x1 = 0.493	141.5	0.2133
333.15 K, x1 = 0.6	153.8	0.1986
333.15 K, x1 = 0.699	164.5	0.1876
333.15 K, x1 = 0.8	174.3	0.1779
333.15 K, x1 = 0.899	183.3	0.1699
333.15 K, x1 = 1	192.3	0.1616
343.15 K, x1 = 0.1	90.42	0.4085
343.15 K, x1 = 0.198	104.5	0.2893
343.15 K, x1 = 0.299	118.5	0.2417
343.15 K, x1 = 0.397	131.7	0.2229
343.15 K, x1 = 0.493	143.5	0.2092
343.15 K, x1 = 0.6	155.8	0.1966
343.15 K, x1 = 0.699	166.4	0.1852
343.15 K, x1 = 0.8	176.4	0.1765
343.15 K, x1 = 0.899	185.6	0.1676
343.15 K, x1 = 1	194.3	0.1593
353.15 K, x1 = 0.1	91.42	0.4058
353.15 K, x1 = 0.198	106.2	0.287
353.15 K, x1 = 0.299	120.8	0.2399
353.15 K, x1 = 0.397	134	0.2185
353.15 K, x1 = 0.493	146.1	0.204
353.15 K, x1 = 0.6	158.8	0.1921
353.15 K, x1 = 0.699	169.6	0.1817
353.15 K, x1 = 0.8	179.9	0.173
353.15 K, x1 = 0.899	189.2	0.1657
353.15 K, x1 = 1	197.8	0.1581
